{"source": "paper PMC1586004", "about": "“Dibenzazecine compounds with a novel dopamine/5HT2A receptor profile and 3D-QSAR analysis” (BMC Pharmacology, 2006)", "key": {"hD1 receptor [1]": {"molecular_target": "T1, hD1 receptor (Homo sapiens, UniProt P21728)", "T1 construct": "expressed in transfected cells", "T1 sequence (P21728 whole entry)": "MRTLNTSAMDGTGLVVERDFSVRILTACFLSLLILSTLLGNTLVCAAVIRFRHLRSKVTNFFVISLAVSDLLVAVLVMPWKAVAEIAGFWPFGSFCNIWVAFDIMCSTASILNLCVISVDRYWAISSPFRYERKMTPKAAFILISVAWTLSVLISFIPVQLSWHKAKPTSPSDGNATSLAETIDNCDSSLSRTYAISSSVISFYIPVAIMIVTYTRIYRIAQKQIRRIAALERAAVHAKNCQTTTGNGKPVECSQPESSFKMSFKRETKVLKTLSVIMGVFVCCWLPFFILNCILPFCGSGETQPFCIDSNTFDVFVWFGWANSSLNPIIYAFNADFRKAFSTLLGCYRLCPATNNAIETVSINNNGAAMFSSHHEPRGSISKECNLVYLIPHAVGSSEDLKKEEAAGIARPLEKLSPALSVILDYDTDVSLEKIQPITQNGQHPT", "experiment": "[35S]-GTPγS binding in HEK293-hD1 cell membranes", "type": "biochemical", "experimental": "(§1) For [^35S]-GTPγS-binding, cell pellets were resuspended in 10 mM Tris-HCl/1 mM EDTA, pH 7.4, homogenized in a glass-teflon homogenizer and centrifuged for 15 min (40,000 × g, 4°C). Supernatant was discarded, and pellet was washed twice with ice-cold Tris-HCl/EDTA buffer and finally resuspended in 50 mM Tris-HCl, 4 mM MgCl2, 1 mM EDTA, 250 mM sucrose, pH 7.4, and stored at -80°C. The protein content was determined according to the Bradford method [30] with gamma immunoglobulin as standard."}, "hD1 receptor [2]": {"molecular_target": "T1, hD1 receptor", "experiment": "Radioligand competition binding at hD1 receptors (cell membranes)", "details": "for higher affinities for D1-like than for D2-like receptors: binding (table 2)"}, "hD2L receptor [3]": {"molecular_target": "T2, hD2L receptor (Homo sapiens, UniProt P14416)", "T2 construct": "expressed in transfected cells", "T2 sequence (P14416 whole entry)": "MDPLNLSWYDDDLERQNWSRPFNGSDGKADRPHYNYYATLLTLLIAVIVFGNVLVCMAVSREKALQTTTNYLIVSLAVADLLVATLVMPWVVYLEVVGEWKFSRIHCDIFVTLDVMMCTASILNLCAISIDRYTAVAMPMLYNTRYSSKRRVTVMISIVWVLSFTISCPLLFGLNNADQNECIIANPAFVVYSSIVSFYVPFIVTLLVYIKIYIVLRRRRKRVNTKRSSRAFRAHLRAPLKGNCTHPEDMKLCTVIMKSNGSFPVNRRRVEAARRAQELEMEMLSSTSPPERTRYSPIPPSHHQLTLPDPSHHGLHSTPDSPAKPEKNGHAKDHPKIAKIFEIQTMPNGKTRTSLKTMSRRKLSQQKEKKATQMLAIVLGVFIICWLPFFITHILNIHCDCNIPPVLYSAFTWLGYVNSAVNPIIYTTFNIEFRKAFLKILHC", "experiment": "Radioligand competition binding at hD2L receptors (cell membranes)", "details": "read-out: pKi hD2L (converted)"}, "hD3 receptor": {"molecular_target": "T3, hD3 receptor (Homo sapiens, UniProt P35462)", "T3 construct": "expressed in transfected cells", "T3 sequence (P35462 whole entry)": "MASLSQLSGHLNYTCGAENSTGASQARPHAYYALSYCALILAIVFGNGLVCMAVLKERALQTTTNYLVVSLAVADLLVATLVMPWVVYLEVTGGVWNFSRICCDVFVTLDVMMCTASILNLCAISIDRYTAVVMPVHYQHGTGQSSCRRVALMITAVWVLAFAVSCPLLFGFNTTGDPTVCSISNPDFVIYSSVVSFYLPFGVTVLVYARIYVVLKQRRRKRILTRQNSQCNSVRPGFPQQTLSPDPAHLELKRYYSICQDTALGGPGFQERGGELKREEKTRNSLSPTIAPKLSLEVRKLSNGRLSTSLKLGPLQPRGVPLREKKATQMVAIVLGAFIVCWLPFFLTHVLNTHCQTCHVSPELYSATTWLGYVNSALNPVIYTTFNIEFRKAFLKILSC", "experiment": "Radioligand competition binding at hD3 receptors (cell membranes)", "details": "read-out: pKi hD3 (converted)"}, "hD4.4 receptor": {"molecular_target": "T4, hD4.4 receptor (Homo sapiens, UniProt P21917)", "T4 sequence (P21917 1-419)": "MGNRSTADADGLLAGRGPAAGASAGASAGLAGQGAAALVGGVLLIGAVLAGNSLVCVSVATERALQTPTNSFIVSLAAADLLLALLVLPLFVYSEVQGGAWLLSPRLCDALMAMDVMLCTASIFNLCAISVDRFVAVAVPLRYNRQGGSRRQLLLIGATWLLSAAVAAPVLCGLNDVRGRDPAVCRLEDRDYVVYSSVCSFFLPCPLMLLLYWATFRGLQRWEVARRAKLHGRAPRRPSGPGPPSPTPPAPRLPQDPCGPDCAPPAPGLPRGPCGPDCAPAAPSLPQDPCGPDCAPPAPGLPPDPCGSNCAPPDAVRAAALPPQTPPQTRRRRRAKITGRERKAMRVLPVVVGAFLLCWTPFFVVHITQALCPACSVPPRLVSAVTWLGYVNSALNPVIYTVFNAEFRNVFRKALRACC", "experiment": "Radioligand competition binding at hD4.4 receptors (cell membranes)", "details": "read-out: pKi hD4.4 (converted)"}, "hD5 receptor": {"molecular_target": "T5, hD5 receptor (Homo sapiens, UniProt P21918)", "T5 construct": "expressed in transfected cells", "T5 sequence (P21918 whole entry)": "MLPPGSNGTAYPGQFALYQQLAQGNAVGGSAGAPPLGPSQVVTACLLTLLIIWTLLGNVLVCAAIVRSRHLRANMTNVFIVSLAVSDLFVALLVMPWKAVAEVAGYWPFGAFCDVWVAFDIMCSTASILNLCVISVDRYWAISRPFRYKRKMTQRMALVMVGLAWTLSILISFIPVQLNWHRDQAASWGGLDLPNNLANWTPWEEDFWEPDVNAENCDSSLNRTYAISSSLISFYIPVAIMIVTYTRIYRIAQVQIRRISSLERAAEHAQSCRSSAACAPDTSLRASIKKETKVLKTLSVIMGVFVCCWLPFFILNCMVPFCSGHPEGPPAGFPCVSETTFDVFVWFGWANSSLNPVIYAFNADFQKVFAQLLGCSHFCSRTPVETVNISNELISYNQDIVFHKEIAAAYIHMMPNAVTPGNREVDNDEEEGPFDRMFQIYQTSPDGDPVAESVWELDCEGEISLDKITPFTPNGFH", "experiment": "Radioligand competition binding at hD5 receptors (cell membranes)", "details": "read-out: pKi hD5 (converted)"}, "h5HT2A receptor": {"molecular_target": "h5HT2A receptor (Homo sapiens, UniProt P28223)", "sequence (P28223 whole entry)": "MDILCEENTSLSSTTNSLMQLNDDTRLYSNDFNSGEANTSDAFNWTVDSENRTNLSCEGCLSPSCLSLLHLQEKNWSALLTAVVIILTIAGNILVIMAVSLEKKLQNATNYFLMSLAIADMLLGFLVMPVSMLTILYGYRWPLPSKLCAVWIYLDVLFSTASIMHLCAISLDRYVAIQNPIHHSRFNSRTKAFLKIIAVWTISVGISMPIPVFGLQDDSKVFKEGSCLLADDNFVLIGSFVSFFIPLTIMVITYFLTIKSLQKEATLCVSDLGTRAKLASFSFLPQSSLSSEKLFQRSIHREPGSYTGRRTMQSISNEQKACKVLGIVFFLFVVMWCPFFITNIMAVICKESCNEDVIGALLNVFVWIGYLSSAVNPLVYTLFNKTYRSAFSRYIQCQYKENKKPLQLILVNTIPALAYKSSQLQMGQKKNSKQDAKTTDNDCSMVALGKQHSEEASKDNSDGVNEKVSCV", "experiment": "Radioligand competition binding at h5HT2A receptors (cell membranes)", "details": "read-out: pKi h5HT2A (converted)"}, "hD1 receptor [4]": {"molecular_target": "T1, hD1 receptor", "experiment": "Intracellular [cAMP], CRE-luciferase reporter gene assay, HEK293-hD1 cells", "type": "cell-based"}, "hD2L receptor [5]": {"molecular_target": "T2, hD2L receptor", "experiment": "Intracellular [cAMP], CRE-luciferase reporter gene assay, HEK293-hD2L cells", "type": "cell-based", "details": "read-out: pKi app [cAMP]i hD2L (converted)"}, "hD1 receptor [6]": {"molecular_target": "T1, hD1 receptor", "experiment": "Intracellular [Ca2+] fluorescence assay, HEK293-hD1 cells", "type": "cell-based"}, "hD2L receptor [7]": {"molecular_target": "T2, hD2L receptor", "experiment": "Intracellular [Ca2+] fluorescence assay, HEK293-hD2L cells", "type": "cell-based"}, "hD2L receptor [8]": {"molecular_target": "T2, hD2L receptor", "experiment": "[35S]-GTPγS binding in HEK293-hD2L cell membranes", "type": "biochemical", "details": "read-out: pKi app [35S]-GTPγS binding hD2L (converted)", "experimental": "as §1"}, "hD1 receptor [9]": {"molecular_target": "T1, hD1 receptor", "details": "radioligand binding literature data; cited from earlier work"}, "hD2L receptor [10]": {"molecular_target": "T2, hD2L receptor", "details": "radioligand binding literature data; cited from earlier work"}, "[11]": {"details": "Schild and Clark analyses, Ca2+ assay"}}, "note": "Marks after values point to notes of the source that are not given here."}
{"compound": "Oc1cc2c(cc1O)[C@H]1c3ccccc3CN[C@@H]1CC2", "note": "(racemic) [Dihydrexidine, reference compound]", "values": [{"measurement": "increase in [35S]-GTPγS binding compared with SKF38393", "setting": "hD1 receptor [1]; membrane preparations from HEK293-hD1 cells, 1 μM GDP", "result": "significantly higher increase"}]}
{"compound": "BrCCN1CCc2ccccc2Cc2[nH]c3ccccc3c2CC1", "note": "[AHAD11]", "values": [{"measurement": "Ki", "setting": "hD1 receptor [2]; read-out: pKi hD1 (converted)", "result": 1.51, "unit": "µM"}]}
{"compound": "CN1CCc2ccccc2Cc2[nH]c3ccccc3c2CC1", "note": "[LE300]", "values": [{"measurement": "Ki-D1/Ki-D2", "setting": "hD1 receptor [2]", "result": 0.16}, {"measurement": "fold higher Ki using Krebs-HEPES instead of TRIS-HCl buffer, hD1", "setting": "hD1 receptor [2]", "result": "~ 4 fold"}, {"measurement": "Ki", "setting": "hD1 receptor [2]; 0.2 nM [3H]SCH23390, Krebs-HEPES buffer pH 7.4, n = 3, read-out: Ki (Krebs-HEPES) hD1", "result": "0.01 ± 0.00115", "unit": "µM"}, {"measurement": "Ki", "setting": "hD1 receptor [2]; 0.2 nM [3H]SCH23390, TRIS-HCl pH 7.4, n = 3, read-out: Ki (TRIS-HCl) hD1", "result": "0.00236 ± 0.00013", "unit": "µM"}, {"measurement": "Ki", "setting": "hD1 receptor [2]; heterologous competition, 0.2 nM [3H]SCH23390, Krebs-HEPES buffer pH 7.4, mean ± SEM, n ≥ 3, read-out: pKi hD1 (converted)", "result": 0.0105, "unit": "µM"}, {"measurement": "Ki", "setting": "hD2L receptor [3]", "result": 0.0646, "unit": "µM"}, {"measurement": "Ki", "setting": "hD3 receptor", "result": 0.331, "unit": "µM"}, {"measurement": "Ki", "setting": "hD4.4 receptor", "result": 0.347, "unit": "µM"}, {"measurement": "Ki", "setting": "hD5 receptor", "result": 0.0102, "unit": "µM"}, {"measurement": "Ki", "setting": "h5HT2A receptor", "result": 0.000224, "unit": "µM"}, {"measurement": "IC50", "setting": "hD1 receptor [4]; read-out: IC50 [cAMP] hD1 (antagonist)", "result": "0.123 ± 0.0311", "unit": "µM"}, {"measurement": "Ki", "setting": "hD1 receptor [4]; read-out: pKi app [cAMP]i hD1 (converted)", "result": 0.0282, "unit": "µM"}, {"measurement": "Ki", "setting": "hD2L receptor [5]", "result": 0.00186, "unit": "µM"}, {"measurement": "pKi app [Ca2+]i hD1", "setting": "hD1 receptor [6]", "result": "7.22 ± 0.15"}, {"measurement": "IC50", "setting": "hD1 receptor [6]; read-out: IC50 [Ca2+] hD1 (antagonist)", "result": "0.718 ± 0.168", "unit": "µM"}, {"measurement": "Ki", "setting": "hD2L receptor [7]; read-out: pKi app [Ca2+]i hD2L (converted)", "result": 0.0117, "unit": "µM"}, {"measurement": "Ki", "setting": "hD1 receptor [1]; read-out: pKi app [35S]-GTPγS binding hD1 (converted)", "result": 0.0178, "unit": "µM"}, {"measurement": "Ki", "setting": "hD2L receptor [8]", "result": 0.00724, "unit": "µM"}]}
{"compound": "CN1CCc2ccccc2Cc2cc(O)c(O)cc2CC1", "note": "[LE403]", "values": [{"measurement": "higher affinities for D1-like than for D2-like receptors", "setting": "hD1 receptor [2]", "result": "up to 33 fold"}, {"measurement": "Ki", "setting": "hD3 receptor", "result": 0.724, "unit": "µM"}, {"measurement": "Ki", "setting": "h5HT2A receptor", "result": 0.00398, "unit": "µM"}]}
{"compound": "CN1CCc2ccccc2Cc2ccc(O)cc2CC1", "note": "[LE404]", "values": [{"measurement": "higher affinities for D1-like than for D2-like receptors", "setting": "hD1 receptor [2]", "result": "up to 33 fold"}, {"measurement": "Ki", "setting": "h5HT2A receptor", "result": 0.00162, "unit": "µM"}, {"measurement": "nature of antagonism at D1 receptors", "setting": "hD1 receptor [6]; [11]", "result": "competitive antagonistic behaviour"}, {"measurement": "D1 preference over D2L in Ca2+ studies", "setting": "hD1 receptor [6]; apparent functional Ki, Ca2+ (table 5)", "result": 3, "unit": "fold"}, {"measurement": "nature of antagonism at D2L receptors", "setting": "hD2L receptor [7]; [11]", "result": "competitive antagonistic behaviour"}]}
{"compound": "CN(C)CCC=C1c2ccccc2C=Nc2ccc(Cl)cc21", "note": "[RMI-81582, 2-chloro-11-(3-dimethylaminopropylidene)morphanthridine]", "values": [{"measurement": "Ki-D1/Ki-D2 (calculated from literature)", "setting": "hD1 receptor [9]", "result": "0.05^a)"}, {"measurement": "Ki-D2/Ki-5HT2A (calculated from literature)", "setting": "hD2L receptor [10]", "result": "31.6^a)"}]}
